Data taken from patent US20230159667A1, “BIOCOMPATIBLE CARRIER FORMULATION FOR APPLICATIONS IN PLANT PROTECTION AND PLANT GROWTH STIMULATION OR IN COSMETICS AND PERSONAL CARE ON THE BASIS OF MODIFIED STARCH” (Amynova Polymers GmbH, priority 2020, published 2023).
Read-outs that look alike come from different tables or passages of the source.

Assay: Active ingredient remaining on foliage after rainfall
[1] = sprayed with the invention as adjuvant vs fungicide alone, 27 mm rainfall 2009, 24 mm 2010

COc1ccc(C(=CC(=O)N2CCOCC2)c2ccc(Cl)cc2)cc1OC [dimethomorph]
rain fastness on leaves (residues remaining on foliage after rainfall): Improved rain fastness

O=[N+]([O-])c1cc(C(F)(F)F)c(Cl)c([N+](=O)[O-])c1Nc1ncc(C(F)(F)F)cc1Cl [fluazinam]
rain fastness on leaves (residues remaining on foliage after rainfall) [1]: Improved rain fastness

Mancozeb
rain fastness on leaves (residues remaining on foliage after rainfall) [1]: Improved rain fastness
